Results taken from US20240124545A1, “COMPOSITIONS AND METHODS RELATING TO THE TREATMENT OF DISEASES” (ILC THERAPEUTICS LIMITED, priority 2021, published 2024).
Several values for one entry are separate records, joined by “and”; a condition that tells them apart may be missing. Identical values can stand only once. Like-named read-outs stand apart in the source and are kept apart here.

Columns and labels:
HIV-1 LAI [1] = details: for HIV Infectivity in HeLa CD4 βgal cells (β-gal units) - antiviral control / HIV Infectivity in HeLa CD4 βgal cells, percentage of vehicle - antiviral control: single data point
in vitro = details: human
HIV-1 LAI [2] = test: microbe, parasite or virus in culture; details: Human immunodeficiency virus 1, 48 h, read-out: IC50 (infectivity), Control HIV Inhibitors
HeLa-CD4-βgal cells = test: XTT viability (cytotoxicity) assay, uninfected HeLa-CD4-βgal cells (Experiment 4); details: for Viability of HeLa-CD4-βgal cells in the XTT assay (percentage values): 48 hours, single data point; for Viability of Uninfected HeLa-CD4-β gal Cells (A490): XTT, raw absorbance 490 nm

## CC(C)OC(=O)[C@H](C)N[P@](=O)(CO[C@H](C)Cn1cnc2c(N)ncnc21)Oc1ccccc1 [TAF, tenofovir alafenamide]
HIV-1 LAI [1]; 0.00005 μM
  HIV Infectivity in HeLa CD4 βgal cells (β-gal units) - antiviral control: 1,043,762 RLU
  HIV Infectivity in HeLa CD4 βgal cells, percentage of vehicle - antiviral control: 91.9 % vehicle
HIV-1 LAI [1]; 0.0003 μM
  HIV Infectivity in HeLa CD4 βgal cells (β-gal units) - antiviral control: 1,038,889 RLU
  HIV Infectivity in HeLa CD4 βgal cells, percentage of vehicle - antiviral control: 91.5 % vehicle
HIV-1 LAI [1]; 0.001 μM
  HIV Infectivity in HeLa CD4 βgal cells (β-gal units) - antiviral control: 935,932 RLU
  HIV Infectivity in HeLa CD4 βgal cells, percentage of vehicle - antiviral control: 82.4 % vehicle
HIV-1 LAI [1]; 0.006 μM
  HIV Infectivity in HeLa CD4 βgal cells (β-gal units) - antiviral control: 575,616 RLU
  HIV Infectivity in HeLa CD4 βgal cells, percentage of vehicle - antiviral control: 50.6 % vehicle
HIV-1 LAI [1]; 0.03 μM
  HIV Infectivity in HeLa CD4 βgal cells (β-gal units) - antiviral control: 145,403 RLU
  HIV Infectivity in HeLa CD4 βgal cells, percentage of vehicle - antiviral control: 12.6 % vehicle
HIV-1 LAI [1]; 0.2 μM
  HIV Infectivity in HeLa CD4 βgal cells (β-gal units) - antiviral control: 6,426 RLU
  HIV Infectivity in HeLa CD4 βgal cells, percentage of vehicle - antiviral control: 0.3 % vehicle
HIV-1 LAI [1]; 0.5 μM
  HIV infection blocked by control antivirals: ~100%
HIV-1 LAI [1]; 0.8 μM
  HIV Infectivity in HeLa CD4 βgal cells (β-gal units) - antiviral control: 2,064 RLU
  HIV Infectivity in HeLa CD4 βgal cells, percentage of vehicle - antiviral control: −0.1 % vehicle
HIV-1 LAI [1]; 4.0 μM
  HIV Infectivity in HeLa CD4 βgal cells (β-gal units) - antiviral control: 1,893 RLU
  HIV Infectivity in HeLa CD4 βgal cells, percentage of vehicle - antiviral control: −0.1 % vehicle
HIV-1 LAI [1]; 20 μM
  HIV Infectivity in HeLa CD4 βgal cells (β-gal units) - antiviral control: 1,475 RLU
  HIV Infectivity in HeLa CD4 βgal cells, percentage of vehicle - antiviral control: −0.1 % vehicle
HIV-1 LAI [1]; control antiviral 0.5 μM, duplicate data points
  HIV Infectivity in HeLa-CD4-βgal cells (% vehicle): 0.0 % vehicle
HIV-1 LAI [1]; control antiviral 0.5 μM, individual values
  HIV Infectivity in HeLa CD4 βgal cells (β-galactosidase units): 3,376 RLU and 3,509 RLU
In vitro
  CC50 at 48 h: > 20000 nM
HIV-1 LAI [2]
  IC50: 8 nM
HeLa-CD4-βgal cells; control antiviral 0.00005 μM
  Viability of HeLa-CD4-βgal cells in the XTT assay (percentage values): 111.5%
  Viability of Uninfected HeLa-CD4-β gal Cells (A490): 0.951
HeLa-CD4-βgal cells; control antiviral 0.0003 μM
  Viability of HeLa-CD4-βgal cells in the XTT assay (percentage values): 101.3%
  Viability of Uninfected HeLa-CD4-β gal Cells (A490): 0.872
HeLa-CD4-βgal cells; control antiviral 0.001 μM
  Viability of HeLa-CD4-βgal cells in the XTT assay (percentage values): 104.6%
  Viability of Uninfected HeLa-CD4-β gal Cells (A490): 0.897
HeLa-CD4-βgal cells; control antiviral 0.006 μM
  Viability of HeLa-CD4-βgal cells in the XTT assay (percentage values): 109.1%
  Viability of Uninfected HeLa-CD4-β gal Cells (A490): 0.932
HeLa-CD4-βgal cells; control antiviral 0.03 μM
  Viability of HeLa-CD4-βgal cells in the XTT assay (percentage values): 103.2%
  Viability of Uninfected HeLa-CD4-β gal Cells (A490): 0.886
HeLa-CD4-βgal cells; control antiviral 0.2 μM
  Viability of HeLa-CD4-βgal cells in the XTT assay (percentage values): 104.5%
HeLa-CD4-βgal cells; control antiviral 0.8 μM
  Viability of HeLa-CD4-βgal cells in the XTT assay (percentage values): 101.5%
  Viability of Uninfected HeLa-CD4-β gal Cells (A490): 0.873
HeLa-CD4-βgal cells; control antiviral 4.0 μM
  Viability of HeLa-CD4-βgal cells in the XTT assay (percentage values): 104.1%
  Viability of Uninfected HeLa-CD4-β gal Cells (A490): 0.894
HeLa-CD4-βgal cells; control antiviral 20 μM
  Viability of HeLa-CD4-βgal cells in the XTT assay (percentage values): 88.2%
  Viability of Uninfected HeLa-CD4-β gal Cells (A490): 0.770
